Reference: patent US20160272622A1, “TETRAZOLINONE COMPOUND AND USE THEREOF” (SUMITOMO CHEMICAL COMPANY, LIMITED, priority 2013, published 2016)

Key:
Assay type in all cases: in vivo
[1] = system: barley net blotch fungus (Pyrenophora teres); test: Barley net blotch control test, foliar spray before inoculation; details: 500 ppm sprayed on barley (NISHINOHOSHI); inoculated 2 days after spraying
Procedure: (§1) The control effect was evaluated by visually observing the area of lesion on each of test plants at the time of investigation, and comparing the area of lesion spots on a plant treated with the present compound with that on an untreated plant.
Each of plastic pots was filled with soil and barley (cultivar: NISHINOHOSHI) was sowed and grown in a greenhouse for 7 days. Then, each water dilution prepared by adjusting so as to contain a predetermined concentration (500 ppm) of any one compound of the present compounds 1, and 3 to 16 was sprayed over stems and leaves of the barley so that it sufficiently adhered to the surface of the leaves of the barley. After spraying, the plant was air-dried. After 2 days, an aqueous suspension containing spores of barley net blotch fungus (Pyrenophora teres) was sprayed to inoculate the spores. After completion of the inoculation, the plant was placed for 3 days in a greenhouse at 23° C. in the daytime and 20° C. at night under high humidity condition and cultivated in a greenhouse for 7 days, and then the area of lesion was investigated. As a result, the area of lesion on the plant treated with the present compound(s) 1, or 3 to 16 was 30% or less of that on an untreated plant.

[2] = system: cotton aphid (Aphis gossypii); test: Cotton aphid control test on sprayed cucumber; details: 500 ppm, 20 mL sprayed on cucumber; adults and larvae; after 6 days
Procedure: Thirty (30) heads of cotton aphid (Aphis gossypii) (including adults and larvae) were released on the leaves of cucumber (cultivar: SAGAMI HANJIRO FUSHINARI) grown in a polyethylene cup until the first true leaf was developed. Next day, 20 mL of the test chemical solution was sprayed.
Control value (%)={1−(Cb×Tai)/(Cai×Tb)}×100
wherein symbols in the equation represent the followings: […]
Cb: Number of insects before spraying chemical solution in untreated area;
Cai: Number of surviving insects in untreated area;
Tb: Number of insects before spraying chemical solution in treated area; and
Tai: Number of surviving insects in treated area.

[3] = system: wheat rust fungus (Puccinia recondita); test: Wheat rust control test, foliar spray before inoculation; details: 200 ppm sprayed on wheat (SHIROGANE); inoculated 5 days after spraying
Procedure: as §1
Each of plastic pots was filled with soil and wheat (cultivar: SHIROGANE) was sowed and grown in a greenhouse for 9 days. Then, each water dilution prepared by adjusting so as to contain a predetermined concentration (200 ppm) of any one compound of the present compounds 12, and 14 to 16 was sprayed over stems and leaves of the wheat so that it sufficiently adhered to the surface of the leaves of the wheat. After spraying, the plant was air-dried and cultivated at 20° C. for 5 days under illumination, and then inoculated by sprinkling with spores of wheat rust fungus (Puccinia recondita). After the inoculation, the plant was placed at 23° C. for one day under dark and high humidity condition, and cultivated under illumination at 20° C. for 8 days, and then the area of lesion was investigated.

[4] = system: wheat leaf blotch fungus (Septoria tritici); test: Wheat leaf blotch control test, spray after inoculation; details: 50 ppm sprayed on wheat (APOGEE) 3 days after inoculation
[5] = system: target spot fungus (Corynespora cassiicola); test: Cucumber target spot control test, foliar spray before inoculation; details: 200 ppm sprayed on cucumber (SAGAMI HANJIRO); inoculated one day after spraying; 7 days
Procedure: as §1
Each of plastic pots was filled with soil and cucumber (cultivar: SAGAMI HANJIRO) was sowed and grown in a greenhouse for 19 days. Then, each water dilution prepared by adjusting so as to contain a predetermined concentration (200 ppm) of the present compound 6 was sprayed over stems and leaves of the cucumber so that it sufficiently adhered to the surface of the leaves of the cucumber. After spraying, the plant was air-dried. After one day, an aqueous suspension containing spores of target spot fungus […]. After the inoculation, the plant was cultivated in a greenhouse at 24° C. in the daytime and 20° C. at night for 7 days, and then the area of lesion was investigated. As a result, the area of lesion on the plant treated with the present compound 6 was 30% or less of that on an untreated plant.

Cn1nnn(-c2cnn(C(C)(C)C)c2COc2ccn(-c3ccc(Cl)cc3)n2)c1=O [present compound 1, 1-(1-tert-butyl-5-{[1-(4-chlorophenyl)-1H-pyrazol-3-yl]oxymethyl}-1H-pyrazol-4-yl)-4-methyl-1,4-dihydrotetrazol-5-one]
area of lesion on treated plant relative to that on an untreated plant [1]: ≤ 30%

COc1ccccc1-n1ccc(OCc2c(-n3nnn(C)c3=O)cnn2C(C)(C)C)n1 [present compound 12, 1-(1-tert-butyl-5-{[1-(2-methoxyphenyl)-1H-pyrazol-3-yl]oxymethyl}-1H-pyrazol-4-yl)-4-methyl-1,4-dihydrotetrazol-5-one]
Control value [2]: ≥ 90%
area of lesion on treated plant relative to that on an untreated plant [3]: ≤ 30%

Cn1nnn(-c2cnn(C(C)(C)C)c2COc2nc(-c3ccc(Cl)cc3)cs2)c1=O [present compound 3]
area of lesion on treated plant relative to that on an untreated plant [4]: ≤ 30%

Cn1nnn(-c2cccnc2COc2ccn(-c3ccc(Cl)cc3)n2)c1=O [present compound 6, 1-(2-{[1-(4-chlorophenyl)-1H-pyrazol-3-yl]oxymethyl}-pyridin-3-yl)-4-methyl-1,4-dihydrotetrazol-5-one]
area of lesion on treated plant relative to that on an untreated plant [5]: ≤ 30%
